Square brackets hold non-standard residues; d marks the D form. Peptide text beside a SMILES is read from it. 2Nal = N[C@@H](Cc1ccc2ccccc2c1)C(=O)O; 4Amb = NCc1ccc(C(=O)O)cc1; 4Abz = Nc1ccc(C(=O)O)cc1

For this experiment, the target named is GPR54 (Homo sapiens, UniProt Q969F8). Put plainly: GPR54 agonist activity by Flipr assay (increase in intracellular Ca2+ measured as fluorescence intensity). It counts as cell-based. The note with it: for % activity: fluorescence intensity with 10^-8 M pentapeptide derivative relative to 10^-6 M metastin (45-54) as 100%; for Q (=EC50 (compound)/EC50 [metastin (45-54)]): specific activity value relative to metastin (45-54). As to the method: A compound having GPR54 agonist activity (pentapeptide derivative) was prepared according to a conventional Fmoc solid phase synthesis process using Rink-amide resin (Fields G B, Noble R L., Int J Pept Protein Res. 1990; 35, 161-214.). The GPR54 agonist activity of the obtained pentapeptide derivative was evaluated according to Flipr assay method wherein an increase in the intracellular Ca^2+ ion concentration due to receptor stimulation is measured as the fluorescence intensity. […] Hereafter, the agonist activity was mainly compared based on the Q value.
GPR54, sequence (Q969F8 whole entry, species assumed): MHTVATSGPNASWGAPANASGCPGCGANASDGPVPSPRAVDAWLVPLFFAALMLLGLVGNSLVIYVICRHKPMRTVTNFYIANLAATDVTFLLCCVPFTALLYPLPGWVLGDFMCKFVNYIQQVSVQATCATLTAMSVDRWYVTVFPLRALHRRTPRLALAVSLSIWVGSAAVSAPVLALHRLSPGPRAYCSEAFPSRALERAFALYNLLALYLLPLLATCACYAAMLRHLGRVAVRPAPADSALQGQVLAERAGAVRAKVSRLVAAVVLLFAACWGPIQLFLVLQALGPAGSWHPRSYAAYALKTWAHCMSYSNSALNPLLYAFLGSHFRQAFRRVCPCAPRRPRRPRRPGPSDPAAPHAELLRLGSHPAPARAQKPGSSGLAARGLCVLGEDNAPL

With `CC(C)C[C@H](NC(=O)CNC(=O)[C@H](Cc1ccccc1)NC(=O)c1ccc(N)cc1)C(=O)N[C@@H](CCCNC(=N)N)C(=O)N[C@@H](Cc1c[nH]c2ccccc12)C(N)=O` [Compound 20, 4-aminobenzoyl-Phe-Gly-Leu-Arg-Trp-NH2] (H-[4Abz]FGLRW-NH2), the “% activity” value was determined as 90%.

Take `CC(C)C[C@H](NC(=O)CNC(=O)[C@H](Cc1ccccc1)NC(=O)c1ccc(CN(Cc2ccccn2)Cc2ccccn2)cc1)C(=O)N[C@@H](CCCNC(=N)N)C(=O)N[C@@H](Cc1c[nH]c2ccccc12)C(N)=O` [Compound 1, reference compound]: the “% activity” value is on record as 89%.

On to `CC(=O)NCc1ccc(C(=O)N[C@@H](Cc2ccccc2)C(=O)NCC(=O)N[C@@H](CC(C)C)C(=O)N[C@@H](CCCNC(=N)N)C(=O)N[C@@H](Cc2c[nH]c3ccccc23)C(N)=O)cc1` [Compound 28, N-acetyl-4-(aminomethyl)benzoyl-Phe-Gly-Leu-Arg-Trp-NH2] (Ac-[4Amb]FGLRW-NH2), for which the “% activity” value is 100%.

Consider `CC(C)C[C@H](NC(=O)CNC(=O)[C@H](Cc1ccccc1)NC(=O)c1ccc(F)cc1)C(=O)N[C@@H](CCCNC(=N)N)C(=O)N[C@@H](Cc1c[nH]c2ccccc12)C(N)=O` [Compound 39, 4-fluorobenzoyl-Phe-Gly-Leu-Arg-Trp-NH2], for which the “% activity” value is listed as 96%.

Consider `CC(C)C[C@H](NC(=O)CNC(=O)[C@H](Cc1ccccc1)NC(=O)c1c[nH]cn1)C(=O)N[C@@H](CCCNC(=N)N)C(=O)N[C@@H](Cc1c[nH]c2ccccc12)C(N)=O` [Compound 26, 4-imidazolylcarbonyl-Phe-Gly-Leu-Arg-Trp-NH2], for which the “% activity” value was found to be 88%.

On to `CC(C)C[C@H](NC(=O)CNC(=O)[C@H](Cc1ccc2ccccc2c1)NC(=O)c1ccc(CN)cc1)C(=O)N[C@@H](CCCNC(=N)N)C(=O)N[C@@H](Cc1c[nH]c2ccccc12)C(N)=O` [Compound 8, 4-(aminomethyl)benzoyl-Nal(2)-Gly-Leu-Arg-Trp-NH2] (H-[4Amb][2Nal]GLRW-NH2), for which the “% activity” value was 89%. For the same compound, the “agonist activity, times stronger than compound 6” value (compared with compound 6) is reported as “about 4 times”.

Turning to `CC(C)C[C@H](NC(=O)CNC(=O)[C@H](Cc1ccccc1)NC(=O)c1ccc(CN)cc1)C(=O)N[C@@H](CCCNC(=N)N)C(=O)N[C@@H](Cc1c[nH]c2ccccc12)C(N)=O` [Compound 6, 4-(aminomethyl)benzoyl-Phe-Gly-Leu-Arg-Trp-NH2] (H-[4Amb]FGLRW-NH2), the “% activity” value was 97% and the “Q (=EC50 (compound)/EC50 [metastin (45-54)])” value is reported as 3.4.

Take `CC(C)C[C@H](NC(=O)CNC(=O)[C@H](Cc1ccccc1)NC(=O)c1ccc[nH]1)C(=O)N[C@@H](CCCNC(=N)N)C(=O)N[C@@H](Cc1c[nH]c2ccccc12)C(N)=O` [Compound 27, 2-pyrrolylcarbonyl-Phe-Gly-Leu-Arg-Trp-NH2]: the “% activity” value came out at 96%.

Turning to `CC(C)C[C@H](NC(=O)CNC(=O)[C@H](Cc1ccccc1)NC(=O)c1ccc(Cl)cc1)C(=O)N[C@@H](CCCNC(=N)N)C(=O)N[C@@H](Cc1c[nH]c2ccccc12)C(N)=O` [Compound 38, 4-chlorobenzoyl-Phe-Gly-Leu-Arg-Trp-NH2], the “% activity” value is 92%.

As usually defined, the EC50 is the concentration needed to bring the measured effect to its halfway point. A high value points to weaker potency. As to `CC(C)C[C@H](NC(=O)CNC(=O)[C@H](Cc1ccccc1)NC(=O)[C@H](CO)NC(=O)[C@H](CC(N)=O)NC(=O)[C@H](Cc1c[nH]c2ccccc12)NC(=O)[C@H](CC(N)=O)NC(=O)[C@@H](N)Cc1ccc(O)cc1)C(=O)N[C@@H](CCCNC(=N)N)C(=O)N[C@@H](Cc1ccccc1)C(N)=O` [Metastin (45-54), reference compound], the EC50 fell in the range of 0.36 to 1.1 nM, the “% activity” value came out at 100% and the “Q (=EC50 (compound)/EC50 [metastin (45-54)])” value turned out to be 1.0.

As for `CC(C)C[C@H](NC(=O)CNC(=O)[C@H](Cc1ccccc1)NC(=O)c1ccc([N+](=O)[O-])cc1)C(=O)N[C@@H](CCCNC(=N)N)C(=O)N[C@@H](Cc1c[nH]c2ccccc12)C(N)=O` [Compound 37, 4-nitrobenzoyl-Phe-Gly-Leu-Arg-Trp-NH2], the “% activity” value is 94%.

Take `CC(C)C[C@H](NC(=O)CNC(=O)[C@H](Cc1ccccc1)NC(=O)c1ccc(CNC(=N)N)cc1)C(=O)N[C@@H](CCCNC(=N)N)C(=O)N[C@@H](Cc1c[nH]c2ccccc12)C(N)=O` [Compound 2, reference compound]: the “% activity” value is given as 94%.

`CC(C)C[C@H](NC(=O)CNC(=O)[C@H](Cc1ccccc1)NC(=O)c1ccc(O)cc1)C(=O)N[C@@H](CCCNC(=N)N)C(=O)N[C@@H](Cc1c[nH]c2ccccc12)C(N)=O` [Compound 30, 4-hydroxybenzoyl-Phe-Gly-Leu-Arg-Trp-NH2]: the “% activity” value stood at 95%.

Source of the values: patent US8183212B2, “Compound having GPR54 agonistic activity” (Kyoto University, priority 2006, dated 2012).
